Assays:
Format in all cases: in vivo
[1] = tested on: barnyardgrass (Echinochloa crus-galli); assay: Test A preemergence soil spray, visual injury rating 0-100; conditions: 10 days
Outline: (§1)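 Seeds sown in loam-sand blend got a preemergence directed soil spray, or emerged plants (2-10 cm, one- to two-leaf) got a postemergence spray, of compound in non-phytotoxic solvent with surfactant. After 10 days in greenhouse, injury rated visually versus untreated controls on a 0 (no effect) to 100 (complete control) scale.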

[2] = tested on: blackgrass (Alopecurus myosuroides); assay: as above; conditions: 10 days
Outline: as §1

corn (Zea mays) [3] = assay: as above; conditions: 10 days
Outline: as §1

[4] = tested on: green foxtail (Setaria viridis); assay: as above; conditions: 10 days
Outline: as §1

kochia (Bassia scoparia) [5] = assay: as above; conditions: 10 days
Outline: as §1

[6] = tested on: oat, wild (wild oat, Avena fatua); assay: as above; conditions: 10 days
Outline: as §1

[7] = tested on: palmer (palmer amaranth, palmer pigweed, Amaranthus palmeri); assay: as above; conditions: 10 days
Outline: as §1

[8] = tested on: ragweed (common ragweed, Ambrosia artemisiifolia); assay: as above; conditions: 10 days
Outline: as §1

[9] = tested on: ryegrass, Italian (italian ryegrass, Lolium multiflorum); assay: as above; conditions: 10 days
Outline: as §1

soybean (Glycine max) [10] = assay: as above; conditions: 10 days
Outline: as §1

[11] = tested on: wheat (Triticum aestivum); assay: as above; conditions: 10 days
Outline: as §1

[12] = tested on: barnyardgrass (Echinochloa crus-galli); assay: Test A postemergence application, visual injury rating 0-100
Outline: as §1

[13] = tested on: blackgrass (Alopecurus myosuroides); assay: as above
Outline: as §1

corn (Zea mays) [14] = assay: as above
Outline: as §1

[15] = tested on: galium (catchweed bedstraw, Galium aparine); assay: as above
Outline: as §1

[16] = tested on: green foxtail (Setaria viridis); assay: as above
Outline: as §1

[17] = tested on: horseweed (Erigeron canadensis); assay: as above
Outline: as §1

kochia (Bassia scoparia) [18] = assay: as above
Outline: as §1

[19] = tested on: oat, wild (wild oat, Avena fatua); assay: as above
Outline: as §1

[20] = tested on: palmer (palmer amaranth, palmer pigweed, Amaranthus palmeri); assay: as above
Outline: as §1

[21] = tested on: ragweed (common ragweed, Ambrosia artemisiifolia); assay: as above
Outline: as §1

[22] = tested on: ryegrass, Italian (italian ryegrass, Lolium multiflorum); assay: as above
Outline: as §1

soybean (Glycine max) [23] = assay: as above
Outline: as §1

[24] = tested on: wheat (Triticum aestivum); assay: as above
Outline: as §1

[25] = tested on: barnyardgrass (Echinochloa crusgalli); assay: Test B flooded paddy test, visual plant response rating 0-100; conditions: 250 g ai/ha, Flood, applied to paddy water, evaluated after 13 days
Outline: (§2)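 In this flooded assay, 2-leaf seedlings received compound through the water layer, kept at 3 cm over the soil. Plants were held 13 days in a greenhouse and then visually compared with control pots.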

[26] = tested on: ducksalad (Heteranthera limosa); assay: as above; conditions: 250 g ai/ha, Flood, applied to paddy water, evaluated after 13 days
Outline: as §2

rice (Oryza sativa) = assay: as above; conditions: 250 g ai/ha, Flood, applied to paddy water, evaluated after 13 days
Outline: as §2

[27] = tested on: sedge, umbrella (small-flower umbrella sedge, Cyperus difformis); assay: as above; conditions: 250 g ai/ha, Flood, applied to paddy water, evaluated after 13 days
Outline: as §2

[28] = 62 g ai/ha, 0 = no effect, 100 = complete control
[29] = 62 g ai/ha, postemergence, 10 days, 0 = no effect, 100 = complete control
[30] = Postemergence, 16 g ai/ha, greenhouse 10 days, 0 no effect, 100 complete control

CC(C)COC(=O)C1=CCC(NC(=O)C2(C)CN(c3cc(F)cc(Cl)c3)C(=O)O2)C1 (stereo not shown) [Compound 143]
Barnyardgrass plant response rating ([1]; 16 g ai/ha, 0 to 100 scale): 0
Barnyardgrass plant response rating (0-100) [1, 28]: 0
Blackgrass plant response rating ([2]; 16 g ai/ha, 0 to 100 scale): 0
Blackgrass plant response rating (0-100) [2, 28]: 0
Corn plant response rating (corn (Zea mays) [3]; 16 g ai/ha, 0 to 100 scale): 0
Corn plant response rating (0-100) (corn (Zea mays) [3]; [28]): 0
Foxtail, Green plant response rating ([4]; 16 g ai/ha, 0 to 100 scale): 0
Foxtail, Green plant response rating (0-100) [4, 28]: 0
Kochia plant response rating (kochia (Bassia scoparia) [5]; 16 g ai/ha, 0 to 100 scale): 0
Kochia plant response rating (0-100) (kochia (Bassia scoparia) [5]; [28]): 0
Oat, Wild plant response rating ([6]; 16 g ai/ha, 0 to 100 scale): 0
Oat, Wild plant response rating (0-100) [6, 28]: 0
Pigweed, Palmer plant response rating ([7]; 16 g ai/ha, 0 to 100 scale): 0
Pigweed, Palmer plant response rating (0-100) [7, 28]: 0
Ragweed plant response rating ([8]; 16 g ai/ha, 0 to 100 scale): 0
Ragweed plant response rating (0-100) [8, 28]: 0
Ryegrass, Italian plant response rating ([9]; 16 g ai/ha, 0 to 100 scale): 0
Ryegrass, Italian plant response rating (0-100) [9, 28]: 0
Soybean plant response rating (soybean (Glycine max) [10]; 16 g ai/ha, 0 to 100 scale): 0
Soybean plant response rating (0-100) (soybean (Glycine max) [10]; [28]): 0
Wheat plant response rating ([11]; 16 g ai/ha, 0 to 100 scale): 0
Wheat plant response rating (0-100) [11, 28]: 0
Barnyardgrass plant response rating (0-100) [12, 29]: 0
Barnyardgrass plant response rating (0 to 100 scale) [12, 30]: 0
Blackgrass plant response rating (0-100) [13, 29]: 0
Blackgrass plant response rating (0 to 100 scale) [13, 30]: 0
Corn plant response rating (0-100) (corn (Zea mays) [14]; [29]): 0
Corn plant response rating (0 to 100 scale) (corn (Zea mays) [14]; [30]): 0
Galium plant response rating (0-100) [15, 29]: 0
Galium plant response rating (0 to 100 scale) [15, 30]: 0
Foxtail, Green plant response rating (0-100) [16, 29]: 0
Foxtail, Green plant response rating (0 to 100 scale) [16, 30]: 0
Horseweed plant response rating (0-100) [17, 29]: 0
Horseweed plant response rating (0 to 100 scale) [17, 30]: 0
Kochia plant response rating (0-100) (kochia (Bassia scoparia) [18]; [29]): 0
Kochia plant response rating (0 to 100 scale) (kochia (Bassia scoparia) [18]; [30]): 0
Oat, Wild plant response rating (0-100) [19, 29]: 0
Oat, Wild plant response rating (0 to 100 scale) [19, 30]: 0
Pigweed, Palmer plant response rating (0-100) [20, 29]: 0
Pigweed, Palmer plant response rating (0 to 100 scale) [20, 30]: 0
Ragweed plant response rating (0-100) [21, 29]: 0
Ragweed plant response rating (0 to 100 scale) [21, 30]: 0
Ryegrass, Italian plant response rating (0-100) [22, 29]: 0
Ryegrass, Italian plant response rating (0 to 100 scale) [22, 30]: 0
Soybean plant response rating (0-100) (soybean (Glycine max) [23]; [29]): 0
Soybean plant response rating (0 to 100 scale) (soybean (Glycine max) [23]; [30]): 0
Wheat plant response rating (0-100) [24, 29]: 0
Wheat plant response rating (0 to 100 scale) [24, 30]: 0
Plant response rating, Barnyardgrass (0 to 100 scale, 0 is no effect and 100 is complete control) [25]: 40
Plant response rating, Ducksalad (0 to 100 scale, 0 is no effect and 100 is complete control) [26]: 60
Plant response rating, Rice (0 to 100 scale, 0 is no effect and 100 is complete control) (rice (Oryza sativa)): 10
Plant response rating, Sedge, Umbrella (0 to 100 scale, 0 is no effect and 100 is complete control) [27]: 45
